This test deals with monoclonal antibody specific for (NANP)3 / recombinant protein containing the repetitive domain (NANP)n interaction. In words: Inhibition ELISA: inhibition of the monoclonal antibody-recombinant protein interaction. Format: binding, mouse. Particulars: 2000 to 3,9 μg/ml peptide or peptide-resin; 2 h at room temperature; absorbance at 492 nm; FIG. 6. As to the method:
In brief, the designed immunological experiment encompassed the following steps: the purified recombinant protein containing the repetitive domain (NANP)n of the circunsporozoite form of Plasmodium falciparum (v.g. Cell, 70, 1021-1033, [1992]) was added to Elisa's plate (200 ng/well) and maintained overnight at room temperature. After 3 washes with phosphate buffer containing 0,05% Tween-20, the plates were treated at 37° C. with PBS containing 5% disnatured milk and 1% serum bovine albumin. To calculate the degree of interaction of this recombinant protein with its antibody, the plates were treated with a specific monoclonal antibody for the (NANP)3 sequence obtained according to the reference in Science 228, 1436-1440 (1985), in a final concentration of 20 ng/ml. […] After 1 h of incubation at room temperature, the excess of labeled antibody was removed during the washings and the calorimetric reaction with o-phenilenediamine was developed and read at 492 nm. […]
100 μl of PBS were added to 2000 μg/ml to 3,9 μg/ml of free peptide (acetyl-NANP)3 or of {[(acetil-NANP)3]4-Eac4-(Lys)2-Lys-DEAE-Sephadex A50}resin. […] The absorbance of solutions was measured at 492 nm and the percentage of inhibition of this interaction antibody-recombinant protein induced by peptide-resin, resin or peptide was calculated according to the equation: […]

Regarding acetyl-(NANP)3 [free (acetyl-NANP)3], the “inhibition of the antibody-recombinant protein interaction” value was “highest inhibition”.

For the origin of these results see patent publication US20030212254A1, “Use of an anion exchange resin (emp-7) as solid support for peptide synthesis and affinity chromatography” (priority 1999, published 2003).
